# Source: patent US10051857B2, “Formulation component” (SYNGENTA LIMITED, priority 2011, dated 2018)
# Tests used:
# Type in all cases: in vivo
# [1] = system: four weed species (ALOMY, AVEFA, LOLPE, SETVI); assay: Glasshouse adjuvant test with pinoxaden (Example 8), mean across species; conditions: pinoxaden 7.5 or 15 g/ha, adjuvant 0.2% v/v or none
# Protocol: (§1) The adjuvant shown in example 1 was tested in a glasshouse against four weed species in combination with the herbicide pinoxaden. A 20% w/w stock emulsion of compound 1 was prepared additionally containing 2% w/w Gohsenol® GL03 and 2% w/w Pluronic® PE10500 as surfactants. Using this, an agrochemical composition was prepared containing 0.2% v/v of the adjuvant in a track sprayer and was applied at a volume of 200 liters per hectare. Pinoxaden was applied at either 7.5 or 15 grams of pesticide per hectare on each of the weed species. The weed species and their growth stage at spraying were Alopecurus myosuroides (ALOMY; growth stage 13), Avena fatua (AVEFA; growth stage 12); Lolium perenne (LOLPE; growth stage 13), Setaria viridis (SETVI; growth stage 14).
# (§2) Each spray test was replicated three times. The efficacy of the herbicide was assessed visually and expressed as a percentage of the leaf area killed. Samples were assessed at time periods of 14 and 21 days following application. The results shown in Table 8 are mean averages over the two rates of pinoxaden, three replicates and the two assessment timings, and are compared to the efficacy of pinoxaden in the absence of adjuvant.
# [2] = system: Alopecurus myosuroides (ALOMY); assay: Glasshouse adjuvant test with pinoxaden (Example 8); conditions: pinoxaden 7.5 or 15 g/ha, adjuvant 0.2% v/v or none, 200 l/ha; growth stage 13; mean over two rates, three replicates, 14 and 21 days
# Protocol: as §1, §2
# [3] = system: Setaria viridis (SETVI); assay: as above; conditions: pinoxaden 7.5 or 15 g/ha, adjuvant 0.2% v/v or none, 200 l/ha; growth stage 14; mean over two rates, three replicates, 14 and 21 days
# Protocol: as §1, §2
# [4] = system: Lolium perenne (LOLPE); assay: as above; conditions: pinoxaden 7.5 or 15 g/ha, adjuvant 0.2% v/v or none, 200 l/ha; growth stage 13; mean over two rates, three replicates, 14 and 21 days
# Protocol: as §1, §2
# [5] = system: Avena fatua (AVEFA); assay: as above; conditions: pinoxaden 7.5 or 15 g/ha, adjuvant 0.2% v/v or none, 200 l/ha; growth stage 12; mean over two rates, three replicates, 14 and 21 days
# Protocol: as §1, §2
# [6] = system: four weed species (AMATE, BRADE, DIGSA, POLCO); assay: Glasshouse adjuvant test with mesotrione (Example 6), mean across species; conditions: mesotrione 45 or 90 g/ha, adjuvant 0.2% v/v or none
# [7] = system: Polygonum convolvulus (POLCO); assay: Glasshouse adjuvant test with mesotrione (Example 6); conditions: mesotrione 45 or 90 g/ha, adjuvant 0.2% v/v or none, 200 l/ha; growth stage 11/11.5; mean over two rates, three replicates, 7, 14 and 21 days
# Protocol: (§3) Compound 1 was tested in a glasshouse against four weed species using the herbicide mesotrione. A 20% w/w stock emulsion of compound 1 was prepared additionally containing 2% w/w Gohsenol® GL03 and 2% w/w Pluronic® PE10500 as surfactants. Using this, an agrochemical composition was prepared containing 0.2% v/v of the adjuvant in a track sprayer and was applied at a volume of 200 liters per hectare. Mesotrione was applied at either 45 or 90 grams of pesticide per hectare on each of the weed species. The weed species and their growth stage at spraying were Amaranthus tuberculatus (AMATE; growth stage 13/14), Brachiaria decumbens (BRADE; growth stage 13/14), Digitaria sanguinalis (DIGSA; growth stage 14), and Polygonum convolvulus (POLCO; growth stage 11/11.5).
# (§4) Each test was replicated three times. The efficacy of the herbicide was assessed visually and expressed as a percentage of the leaf area killed. Samples were assessed at time periods of 7, 14 and 21 days following application. The results shown in Table 6 below are mean averages over the two rates of mesotrione, three replicates and the three assessment timings, and are compared to the efficacy of mesotrione in absence of adjuvant.
# [8] = system: Brachiaria decumbens (BRADE); assay: as above; conditions: mesotrione 45 or 90 g/ha, adjuvant 0.2% v/v or none, 200 l/ha; growth stage 13/14; mean over two rates, three replicates, 7, 14 and 21 days
# Protocol: as §3, §4
# [9] = system: Digitaria sanguinalis (DIGSA); assay: as above; conditions: mesotrione 45 or 90 g/ha, adjuvant 0.2% v/v or none, 200 l/ha; growth stage 14; mean over two rates, three replicates, 7, 14 and 21 days
# Protocol: as §3, §4
# [10] = system: Amaranthus tuberculatus (AMATE); assay: as above; conditions: mesotrione 45 or 90 g/ha, adjuvant 0.2% v/v or none, 200 l/ha; growth stage 13/14; mean over two rates, three replicates, 7, 14 and 21 days
# Protocol: as §3, §4
# [11] = system: Setaria viridis (SETVI); assay: Glasshouse adjuvant test with nicosulfuron (Example 7); conditions: nicosulfuron 30 or 60 g/ha, adjuvant 0.2% v/v or none, 200 l/ha; growth stage 13; mean over two rates, three replicates, 14 and 21 days
# Protocol: (§5) Compound 1 was tested in a glasshouse against four weed species using the herbicide nicosulfuron. A 20% w/w stock emulsion of compound 1 was prepared additionally containing 2% w/w Gohsenol® GL03 and 2% w/w Pluronic® PE10500 as surfactants. Using this, an agrochemical composition was prepared containing 0.2% v/v of the adjuvant in a track sprayer and was applied at a volume of 200 liters per hectare. Nicosulfuron was applied at either 30 or 60 grams of pesticide per hectare on each of the weed species. The weed species and their growth stage at spraying were Abutilon theophrasti (ABUTH; growth stage 13), Chenopodium album (CHEAL; growth stage 14), Digitaria sanguinalis (DIGSA; growth stage 13), and Setaria viridis (SETVI; growth stage 13).
# (§6) Each spray test replicated three times. The efficacy of the herbicide was assessed visually and expressed as a percentage of the leaf area killed. Samples were assessed at time periods of 14 and 21 days following application. The results shown in Table 7 below are mean averages over the two rates of nicosulfuron, three replicates and the two assessment timings, and are compared to the efficacy of nicosulfuron in the absence of an adjuvant.
# [12] = system: Abutilon theophrasti (ABUTH); assay: as above; conditions: nicosulfuron 30 or 60 g/ha, adjuvant 0.2% v/v or none, 200 l/ha; growth stage 13; mean over two rates, three replicates, 14 and 21 days
# Protocol: as §5, §6
# [13] = system: Chenopodium album (CHEAL); assay: as above; conditions: nicosulfuron 30 or 60 g/ha, adjuvant 0.2% v/v or none, 200 l/ha; growth stage 14; mean over two rates, three replicates, 14 and 21 days
# Protocol: as §5, §6
# [14] = system: Digitaria sanguinalis (DIGSA); assay: as above; conditions: nicosulfuron 30 or 60 g/ha, adjuvant 0.2% v/v or none, 200 l/ha; growth stage 13; mean over two rates, three replicates, 14 and 21 days
# Protocol: as §5, §6
# [15] = system: four weed species (ABUTH, CHEAL, DIGSA, SETVI); assay: Glasshouse adjuvant test with nicosulfuron (Example 7), mean across species; conditions: nicosulfuron 30 or 60 g/ha, adjuvant 0.2% v/v or none
# Protocol: as §5, §6
# [16] = system: Xanthium strumarium (XANST); assay: Glasshouse adjuvant test with fomesafen (Example 3); conditions: fomesafen 60 or 120 g/ha, adjuvant 0.2% v/v or none, 200 l/ha; leaf area killed; mean over two rates, six replicates, 7 and 14 days
# Protocol: (§7) Compound No. 2 was tested in a glasshouse against four weed species in combination with the herbicide fomesafen. An agrochemical composition was prepared containing 0.2% v/v of the adjuvant in a track sprayer and was applied at a volume of 200 liters per hectare. Fomesafen was applied at either 60 or 120 grams of pesticide per hectare on weeds which had been grown to the 1.3 or 1.4 leaf stage. The weed species were Chenopodium album (CHEAL), Abutilon theophrasti (ABUTH), Setaria viridis (SETVI), and Xanthium strumarium (XANST).
# (§8) Each spray test was replicated six times. The efficacy of the herbicide was assessed visually and expressed as a percentage of the leaf area killed. Samples were assessed at time periods of 7 and 14 days following application. The results shown in Table 3 below are mean averages over the two rates of fomesafen, six replicates and the two assessment timings, and are compared to the efficacy of fomesafen in the absence of adjuvant.
# [17] = system: Setaria viridis (SETVI); assay: as above; conditions: fomesafen 60 or 120 g/ha, adjuvant 0.2% v/v or none, 200 l/ha; leaf area killed; mean over two rates, six replicates, 7 and 14 days
# Protocol: as §7, §8
# [18] = system: Abutilon theophrasti (ABUTH); assay: as above; conditions: fomesafen 60 or 120 g/ha, adjuvant 0.2% v/v or none, 200 l/ha; leaf area killed; mean over two rates, six replicates, 7 and 14 days
# Protocol: as §7, §8
# [19] = system: Chenopodium album (CHEAL); assay: as above; conditions: fomesafen 60 or 120 g/ha, adjuvant 0.2% v/v or none, 200 l/ha; leaf area killed; mean over two rates, six replicates, 7 and 14 days
# Protocol: as §7, §8
# [20] = system: four weed species (ABUTH, CHEAL, SETVI, XANST); assay: Glasshouse adjuvant test with fomesafen (Example 3), mean across species; conditions: fomesafen 60 or 120 g/ha, adjuvant 0.2% v/v or none
# Protocol: as §7, §8
# [21] = system: Xanthium strumarium (XANST); assay: Glasshouse adjuvant test with fomesafen (Example 5); conditions: fomesafen 60 or 120 g/ha, adjuvant 0.2% v/v or none, 200 l/ha; growth stage 12; mean over two rates, three replicates, 7, 14 and 21 days
# Protocol: (§9) Compound 1 (N, N-diethyl-3-methylbenzamide) was tested in a glasshouse against four weed species using the herbicide fomesafen. An agrochemical composition was prepared containing 0.2% v/v of the adjuvant in a track sprayer and was applied at a volume of 200 liters per hectare. Fomesafen was applied at either 60 or 120 grams of pesticide per hectare on each of the weed species. The weed species and their growth stage at spraying were Chenopodium album (CHEAL; growth stage 13/14), Abutilon theophrasti (ABUTH; growth stage 12), Setaria viridis (SETVI; growth stage 13), and Xanthium strumarium (XANST; growth stage 12).
# (§10) Each spray test was replicated three times. The efficacy of the herbicide was assessed visually and expressed as a percentage of the leaf area killed. Samples were assessed at time periods of 7, 14 and 21 days following application. The results shown in Table 5 below are mean averages over the two rates of fomesafen, three replicates and the three assessment timings, and are compared to the efficacy of fomesafen in the absence of adjuvant.
# [22] = system: Setaria viridis (SETVI); assay: as above; conditions: fomesafen 60 or 120 g/ha, adjuvant 0.2% v/v or none, 200 l/ha; growth stage 13; mean over two rates, three replicates, 7, 14 and 21 days
# Protocol: as §9, §10
# [23] = system: Abutilon theophrasti (ABUTH); assay: as above; conditions: fomesafen 60 or 120 g/ha, adjuvant 0.2% v/v or none, 200 l/ha; growth stage 12; mean over two rates, three replicates, 7, 14 and 21 days
# Protocol: as §9, §10
# [24] = system: Chenopodium album (CHEAL); assay: as above; conditions: fomesafen 60 or 120 g/ha, adjuvant 0.2% v/v or none, 200 l/ha; growth stage 13/14; mean over two rates, three replicates, 7, 14 and 21 days
# Protocol: as §9, §10
# [25] = system: four weed species (CHEAL, ABUTH, SETVI, XANST); assay: Glasshouse adjuvant test with fomesafen (Example 5), mean across species; conditions: fomesafen 60 or 120 g/ha, adjuvant 0.2% v/v or none
# Protocol: as §9, §10
compound,measurement,setting,value
"CCc1cc(C)cc(CC)c1-c1c(OC(=O)C(C)(C)C)n2n(c1=O)CCOCC2 [Pinoxaden, pinoxaden, reference compound]","Mean percentage kill, Mean across species",[1],17.4%
same,Mean percentage kill ALOMY,[2],21.2%
same,Mean percentage kill SETVI,[3],15%
same,Mean percentage kill LOLPE,[4],12.5%
same,Mean percentage kill AVEFA,[5],20.8%
"CS(=O)(=O)c1ccc(C(=O)C2C(=O)CCCC2=O)c([N+](=O)[O-])c1 [mesotrione, reference compound]","Mean percentage kill, Mean across species",[6],47.1%
same,Mean percentage kill POLCO,[7],73.3%
same,Mean percentage kill BRADE,[8],26.7%
same,Mean percentage kill DIGSA,[9],23%
same,Mean percentage kill AMATE,[10],65.6%
"COc1cc(OC)nc(NC(=O)NS(=O)(=O)c2ncccc2C(=O)N(C)C)n1 [nicosulfuron, reference compound]",Mean percentage kill SETVI,[11],92%
same,Mean percentage kill ABUTH,[12],69.2%
same,Mean percentage kill CHEAL,[13],50.8%
same,Mean percentage kill DIGSA,[14],87.9%
same,"Mean percentage kill, Mean across species",[15],75%
"CS(=O)(=O)NC(=O)c1cc(Oc2ccc(C(F)(F)F)cc2Cl)ccc1[N+](=O)[O-] [fomesafen, reference compound]",Mean percentage kill XANST,[16],45.8%
same,Mean percentage kill SETVI,[17],38.2%
same,Mean percentage kill ABUTH,[18],60.8%
same,Mean percentage kill CHEAL,[19],43.3%
same,"Mean percentage kill, Mean across species",[20],47.0%
same,Mean percentage kill XANST,[21],42.8%
same,Mean percentage kill SETVI,[22],10.6%
same,Mean percentage kill ABUTH,[23],20%
same,Mean percentage kill CHEAL,[24],77.5%
same,"Mean percentage kill, Mean across species",[25],37.7%
